Measured values published in PMC9505538, “P-Glycoprotein (MDR1/ABCB1) Restricts Brain Accumulation of the Novel EGFR Inhibitor EAI045 and Oral Elacridar Coadministration Enhances Its Brain Accumulation and Oral Exposure” (Pharmaceuticals, 2022).

How the values were obtained:
Format in all cases: in vitro ADME
Settings in all cases: for efflux ratio r (relative transport ratio): EAI045 5 μM
human ABCG2 = target: T1, human ABCG2 (Homo sapiens, UniProt Q9UNQ0); test: Transepithelial transport of EAI045, MDCK-II cells transduced with human ABCG2
T1 construct: expressed in transfected cells; host or cells: MDCK-II cells, stably transduced, generated in the authors' institute
T1 sequence (Q9UNQ0 1-655): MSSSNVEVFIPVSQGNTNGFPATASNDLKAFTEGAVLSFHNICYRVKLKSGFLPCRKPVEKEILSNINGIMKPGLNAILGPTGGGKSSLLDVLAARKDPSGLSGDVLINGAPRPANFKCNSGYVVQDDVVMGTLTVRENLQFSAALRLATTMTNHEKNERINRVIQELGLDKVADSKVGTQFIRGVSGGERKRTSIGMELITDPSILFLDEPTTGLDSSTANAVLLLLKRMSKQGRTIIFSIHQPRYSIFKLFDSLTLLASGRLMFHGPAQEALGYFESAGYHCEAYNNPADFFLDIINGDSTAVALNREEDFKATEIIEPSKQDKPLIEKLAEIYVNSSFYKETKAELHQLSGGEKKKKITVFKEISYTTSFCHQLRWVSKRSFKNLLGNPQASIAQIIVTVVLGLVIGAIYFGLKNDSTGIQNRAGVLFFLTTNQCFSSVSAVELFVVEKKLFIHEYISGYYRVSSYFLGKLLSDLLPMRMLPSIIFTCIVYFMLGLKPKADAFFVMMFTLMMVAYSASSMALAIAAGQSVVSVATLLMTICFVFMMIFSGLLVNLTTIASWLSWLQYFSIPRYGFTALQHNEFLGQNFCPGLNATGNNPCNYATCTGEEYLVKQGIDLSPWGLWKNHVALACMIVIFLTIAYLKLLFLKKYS
Experimental: (§1) Transport of EAI045 (5 μM) across epithelia was tested using cell layers of Madin–Darby Canine Kidney (MDCK-II) cells and derived clones expressing hABCB1, hABCG2, or mAbcg2 cDNA. […] In cells overexpressing hABCB1, there was clear transport of EAI045 in the apical direction (r = 5.5, Figure 1C). […] To evaluate the interaction between hABCG2 and mAbcg2 and EAI045, zosuquidar (5 μM) was added to inhibit any endogenous canine ABCB1. In cells overexpressing hABCG2, the BA transport of EAI045 was somewhat increased relative to the AB transport, resulting in an efflux ratio of 1.4 (Figure 1E).
(§2) Figure 1 In vitro transepithelial transport of EAI045 (5 μM) using MCDK-II parental cells (A,B) or transduced with human ABCB1 (C,D), human ABCG2 (E,F), or murine Abcg2 (G,H) cDNA. At t = 0 EAI045 was added in the donor compartment (either apical or basolateral). At 1, 2, and 4 h EAI045 was quantified in the acceptor compartment and the cumulative total transported amount per well was plotted (n = 3). Zosuquidar (5 μM) was added to inhibit the human and/or the endogenous ABCB1, while Ko143 (5 μM) was added to inhibit the human or murine ABCG2. r, relative transport ratio. […] Points, mean; bars, SD. TEXT PRINTED IN THE PICTURE: (A) no label printed: Parental: r = 1.7 | (B) no label printed: Parental + Zos.: r = 1.1 | (C) no label printed: hABCB1: r = 5.5 | (D) no label printed: hABCB1 + Zos.: r = 1.3 | (E) no label printed: hABCG2 + Zos.: r = 1.4 | (F) no label printed: hABCG2 + Zos. + Ko143: r = 1.1 | (G) no label printed: mAbcg2 + Zos.: r = 1.8 | (H) no label printed: mAbcg2 + Zos. + Ko143: r = 1.4
(§3) Madin–Darby Canine Kidney (MDCK-II) cells (ECACC 00062107) stably transduced with human (h) ABCB1, hABCG2, or mouse (m) Abcg2 cDNA were generated in our institute between 1998 and 2005. […] In short, cells were allowed to grow an intact monolayer in 3 days, which was monitored with transepithelial electrical resistance (TEER) measurements, both before and after the transport phase. […] Proper functionality of these cell lines was monitored by continual testing with a variety of drug substrates.

endogenous canine ABCB1 = target: T2, endogenous canine ABCB1 (Canis lupus familiaris, UniProt C0KKU9); test: Transepithelial transport of EAI045 across MDCK-II parental cell layers
T2 construct: the endogenous canine ABCB1, expressed at low levels in the parental cell line; endogenous in cells; host or cells: MDCK-II parental cells (ECACC 00062107)
Experimental: as §1, §2, §3

human ABCB1 = target: T3, human ABCB1 (Homo sapiens, UniProt P08183); test: Transepithelial transport of EAI045, MDCK-II cells transduced with human ABCB1
T3 construct: expressed in transfected cells; host or cells: MDCK-II cells, stably transduced, generated in the authors' institute
Experimental: as §1, §2, §3

T2 sequence (C0KKU9 1-1281): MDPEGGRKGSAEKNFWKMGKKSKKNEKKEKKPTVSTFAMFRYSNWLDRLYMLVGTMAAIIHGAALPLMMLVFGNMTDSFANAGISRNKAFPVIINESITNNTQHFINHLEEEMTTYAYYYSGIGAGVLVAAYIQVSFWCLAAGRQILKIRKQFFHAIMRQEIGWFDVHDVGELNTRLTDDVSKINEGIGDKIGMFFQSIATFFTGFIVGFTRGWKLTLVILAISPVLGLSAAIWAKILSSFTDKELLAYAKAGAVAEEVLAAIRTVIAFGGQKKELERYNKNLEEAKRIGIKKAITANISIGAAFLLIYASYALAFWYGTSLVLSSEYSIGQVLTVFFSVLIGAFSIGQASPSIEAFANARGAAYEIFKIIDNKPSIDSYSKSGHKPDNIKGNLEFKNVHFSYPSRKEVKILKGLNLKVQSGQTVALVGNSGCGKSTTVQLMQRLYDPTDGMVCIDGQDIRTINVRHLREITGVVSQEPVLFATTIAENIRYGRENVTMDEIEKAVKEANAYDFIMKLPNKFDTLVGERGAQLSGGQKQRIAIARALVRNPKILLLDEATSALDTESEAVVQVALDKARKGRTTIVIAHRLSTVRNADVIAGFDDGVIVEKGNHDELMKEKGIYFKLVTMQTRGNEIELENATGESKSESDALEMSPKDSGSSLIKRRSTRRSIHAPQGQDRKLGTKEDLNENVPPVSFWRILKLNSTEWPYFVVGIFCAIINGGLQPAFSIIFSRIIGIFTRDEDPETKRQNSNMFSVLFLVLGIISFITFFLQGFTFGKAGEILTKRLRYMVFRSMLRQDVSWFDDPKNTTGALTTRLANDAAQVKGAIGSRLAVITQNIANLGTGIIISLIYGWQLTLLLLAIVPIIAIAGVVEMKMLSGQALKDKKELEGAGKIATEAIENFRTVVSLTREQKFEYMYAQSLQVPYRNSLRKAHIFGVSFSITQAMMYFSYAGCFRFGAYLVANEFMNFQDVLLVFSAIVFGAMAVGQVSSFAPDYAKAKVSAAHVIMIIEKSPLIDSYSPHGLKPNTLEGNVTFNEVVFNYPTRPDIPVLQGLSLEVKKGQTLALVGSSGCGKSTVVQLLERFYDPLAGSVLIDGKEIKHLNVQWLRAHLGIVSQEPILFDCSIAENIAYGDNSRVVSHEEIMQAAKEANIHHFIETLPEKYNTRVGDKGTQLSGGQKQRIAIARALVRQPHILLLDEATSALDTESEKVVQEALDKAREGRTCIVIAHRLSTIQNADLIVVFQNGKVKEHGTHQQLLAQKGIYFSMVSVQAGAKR
T3 sequence (P08183 whole entry): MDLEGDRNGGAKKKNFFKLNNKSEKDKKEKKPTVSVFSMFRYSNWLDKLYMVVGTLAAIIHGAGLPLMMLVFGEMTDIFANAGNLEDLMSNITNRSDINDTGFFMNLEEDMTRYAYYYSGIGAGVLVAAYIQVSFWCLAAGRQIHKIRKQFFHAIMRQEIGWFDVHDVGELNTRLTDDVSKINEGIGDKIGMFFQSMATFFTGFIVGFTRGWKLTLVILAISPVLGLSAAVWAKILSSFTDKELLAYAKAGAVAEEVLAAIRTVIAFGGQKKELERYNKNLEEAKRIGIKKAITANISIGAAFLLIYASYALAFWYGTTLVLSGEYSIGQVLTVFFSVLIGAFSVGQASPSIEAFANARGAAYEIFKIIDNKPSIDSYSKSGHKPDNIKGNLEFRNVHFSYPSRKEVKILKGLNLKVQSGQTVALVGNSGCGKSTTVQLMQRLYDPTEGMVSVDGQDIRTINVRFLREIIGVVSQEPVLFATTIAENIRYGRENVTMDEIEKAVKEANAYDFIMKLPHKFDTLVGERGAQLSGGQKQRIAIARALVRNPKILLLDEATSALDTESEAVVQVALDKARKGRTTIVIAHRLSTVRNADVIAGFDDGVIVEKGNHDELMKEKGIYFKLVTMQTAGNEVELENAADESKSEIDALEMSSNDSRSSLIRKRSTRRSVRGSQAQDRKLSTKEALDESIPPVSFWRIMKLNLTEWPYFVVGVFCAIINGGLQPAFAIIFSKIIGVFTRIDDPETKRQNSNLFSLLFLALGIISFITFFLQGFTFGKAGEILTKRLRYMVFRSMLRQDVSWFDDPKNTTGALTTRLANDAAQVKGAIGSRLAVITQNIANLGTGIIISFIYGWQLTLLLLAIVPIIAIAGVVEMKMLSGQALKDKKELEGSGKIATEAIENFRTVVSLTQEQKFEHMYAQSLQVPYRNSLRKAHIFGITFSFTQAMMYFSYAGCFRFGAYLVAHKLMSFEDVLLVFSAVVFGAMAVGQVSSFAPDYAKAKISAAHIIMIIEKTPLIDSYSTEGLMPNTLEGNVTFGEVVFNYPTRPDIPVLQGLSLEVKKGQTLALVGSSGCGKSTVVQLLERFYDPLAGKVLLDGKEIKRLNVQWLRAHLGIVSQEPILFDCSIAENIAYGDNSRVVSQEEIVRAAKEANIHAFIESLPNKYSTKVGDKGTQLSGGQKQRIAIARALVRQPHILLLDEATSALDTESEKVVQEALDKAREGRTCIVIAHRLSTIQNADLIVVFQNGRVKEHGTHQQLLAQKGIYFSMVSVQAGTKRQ

SMILES: O=C(Nc1nccs1)C(c1cc(F)ccc1O)N1Cc2ccccc2C1=O (stereo not drawn) [EAI045]
- efflux ratio r (relative transport ratio) (human ABCG2; hABCG2 + zosuquidar 5 μM): 1.4
- efflux ratio r (relative transport ratio) (human ABCG2; hABCG2 + zosuquidar 5 μM + Ko143 5 μM): 1.1
- transport by human ABCG2 (human ABCG2; in vitro): at best slightly transported
- efflux ratio r (relative transport ratio) (endogenous canine ABCB1; parental + zosuquidar 5 μM): 1.1
- efflux ratio r (relative transport ratio) (endogenous canine ABCB1; parental, no inhibitor): 1.7
- transport substrate of endogenous canine ABCB1 (endogenous canine ABCB1; in vitro): moderate transport substrate
- efflux ratio r (relative transport ratio) (human ABCB1; hABCB1 + zosuquidar 5 μM): 1.3
- efflux ratio r (relative transport ratio) (human ABCB1; hABCB1, no inhibitor): 5.5
- transport substrate of hABCB1 (human ABCB1; in vitro): good transport substrate
